In brackets after ≈: the same amount, converted by molar mass. Like-named read-outs stand apart in the source and are kept apart here. Positions of bridges follow the written chain, without caps; N, C: chain ends. Non-standard residues stand in square brackets, D forms with d. Residues, ends and D or L forms follow the SMILES beside them. S5 = C=CCCC[C@](C)(N)C(=O)O; Nle = CCCC[C@H](N)C(=O)O
Columns and labels:
[1] = system: human red blood cells (RBCs); assay: Hemolytic activity assay; assay type: cell-based; settings: peptide at 25 μg/ml, 1 hour at 37° C.
Experimental: For the determination of hemolytic activity, human blood samples were centrifuged to isolate red blood cells (RBCs), which are then washed and suspended in phosphate-buffered saline to yield a 1% (v/v) suspension. The suspension was then added to serial dilutions of peptide stocks in water in clear round-bottom polypropylene 96-well plates and the plates were incubated for 1 hour at 37° C. After incubation, the plates were centrifuged and the supernatant was isolated to determine the amount of hemoglobin released using a spectrophotometer (570 nm), according to the equation: % Hemolysis=(Treated Absorbance−Untreated Control Absorbance)/(1% Triton-X100 Treated Absorbance−Untreated Control Absorbance). The minimum hemolytic concentration (MHC) is the peptide concentration at which there is less than 1% hemoglobin release.

[2] = system: E. coli clinical isolates that harbor the MCR-1 plasmid; assay type: cell-based
Experimental: StAMPs were screened against a panel of MDR clinical samples obtained from the Antimicrobial Resistance Isolate Bank of the Centers for Disease Control and Prevention (Atlanta, Ga.).
(§1) The following microbroth dilution protocol was adapted to determine the minimum inhibitory concentration (MIC) of each peptide. First, Mueller-Hinton broth (MHB) was passed through an anion exchange column to remove polyanionic species and generate refined MHB. […] Briefly, bacterial cells were grown overnight in refined MHB at 37° C. and then diluted and allowed to grow again for several hours. Serial dilutions of peptide stocks in water (10 μl) were prepared using clear round-bottom polypropylene 96-well plates. Then 90 μl of bacteria in refined MHB was added to give a final inoculum of 5×10^5 CFU/ml. The plates were then covered with porous tape to reduce evaporation, and incubated for 20-24 hours at 37° C. The MIC is the minimum peptide concentration at which no visible growth was observed.
The first three StAMPs of Table 2 in Example 3 were then tested against 39 clinical isolates of A. baumannii with various degrees of colistin resistance (Table 3, 4).

A baumannii = assay type: cell-based
Experimental: as §1

B cereus = assay type: cell-based
Experimental: as §1

E coli = assay type: cell-based
Experimental: as §1

P aeruginosa = assay type: cell-based
Experimental: as §1

S aureus = assay type: cell-based
Experimental: as §1

[3] = system: primary human renal proximal tubule epithelial cells (pRPTECs); assay: Renal toxicity assay (pRPTEC lysis, LDH release)
Experimental: (§3) In one embodiment, pRPTECs are seeded at a density of 10,000 cells per well on 96 well plates and incubated for 48 hours at 37° C. Cells are then treated with different concentrations of the StAMP and incubated for another 24-to-48 hour period. Cell viability is then determined and/or lactate dehydrogenase (LDH) release is measured.
(§4) Briefly, pRPTECs in complete growth cell medium were seeded in a 96 well plate at a density of 10,000 cells per well and incubated at 37° C. for 48 hours. Complete medium was then removed and replaced with a toxicity assay medium to which various concentrations of StAMP were added. Cells were then further incubated for 24 to 48 hours after which cell medium was collected and assayed for the presence of Lactate Dehydrogenase (LDH) using a Cytotoxicity Detection Kit (LDH) (Roche).

[4] = system: primary human renal proximal tubule epithelial cells (pRPTECs); settings: for pRPTEC lysis (% LDH release) compared to Mag(i+4)1,15(A9K): 90 minute incubation, FIG. 2; for pRPTEC lysis (% LDH release), long-term lytic activity: 48 hours incubation, FIG. 3
Experimental: as §3, §4

[5] = system: Methicillin-resistant S Aureus; assay type: cell-based
Experimental: as §1
(§2) StAMPs Mag(i+4)2,15(A9K), Pleu(i+4)1,15(A9K) and Pleu(i+4)1,15 were also then tested against 4 clinical isolates of S. aureus of which two were methicillin-susceptible (MSSA) and two were methicillin-resistant (MRSA) (Table 5).

[6] = system: Methicillin-susceptible S Aureus; assay type: cell-based
Experimental: as §1, §2

[7] = E. coli CDC Bank# 346, contains MCR-1 plasmid
[8] = E. coli CDC Bank# 349, contains MCR-1 plasmid

Row | SMILES | % Hemolysis at 25 μg/ml [1] | Antimicrobial Activity MIC [2, 7] | Antimicrobial Activity MIC [2, 8] | MIC A baumannii (A baumannii) | MIC B cereus (B cereus) | MIC E coli (E coli) | MIC P aeruginosa (P aeruginosa) | MIC S aureus (S aureus) | toxicity on pRPTECs (membranolysis) [3] | pRPTEC lysis (% LDH release) compared to Mag(i+4)1,15(A9K) [4] | pRPTEC lysis (% LDH release), long-term lytic activity [4] | Antimicrobial Activity MIC [5] | Antimicrobial Activity MIC [6]
1 | CCCC[C@H](NC(=O)[C@]1(C)CCCC=CCCC[C@](C)(NC(=O)[C@H](C)NC(=O)[C@H](CCCCN)NC(=O)CNC(=O)[C@H](Cc2ccccc2)NC(=O)[C@H](CCCCN)NC(=O)[C@H](CCCCN)NC(=O)[C@H](CCCCN)NC(=O)[C@H](CO)NC(=O)[C@H](Cc2c[nH]cn2)NC(=O)[C@]2(C)CCCC=CCCC[C@](C)(NC(=O)CN)C(=O)NCC(=O)N[C@@H](CCCCN)C(=O)N[C@@H](Cc3ccccc3)C(=O)N2)C(=O)N[C@@H](C(C)C)C(=O)NCC(=O)N[C@@H](CCC(=O)O)C(=O)N1)C(=O)N[C@@H](CC(N)=O)C(=O)N[C@@H](CO)C(N)=O [Mag(i+4)1,15(A9K), GXGKFXHSKKKFGKAXVGEXBNS] (H-G[S5]GKF[S5]HSKKKFGKA[S5]VGE[S5][Nle]NS-NH2; staple 2-6, 16-20) | 1.9% | 1.6 µg/mL | 3.1 µg/mL | 1.6 µg/mL (≈ 0.635 µM) | 6.2 µg/mL (≈ 2.46 µM) | 1.6 µg/mL (≈ 0.635 µM) | 3.1 µg/mL (≈ 1.23 µM) | 50 µg/mL (≈ 19.8 µM) | could cause membranolysis of pRPTECs at relatively low concentrations |  |  |  | 
2 | CC(C)[C@@H]1NC(=O)[C@@](C)(NC(=O)[C@H](C)NC(=O)[C@H](CCCCN)NC(=O)CNC(=O)[C@H](Cc2ccccc2)NC(=O)[C@H](CCCCN)NC(=O)[C@H](CCCCN)NC(=O)[C@H](CCCCN)NC(=O)[C@H](CO)NC(=O)[C@H](Cc2c[nH]cn2)NC(=O)[C@]2(C)CCCC=CCCC[C@](C)(NC(=O)CN)C(=O)NCC(=O)N[C@@H](CCCCN)C(=O)N[C@@H](Cc3ccccc3)C(=O)N2)CCCC=CCCC[C@@](C)(C(=O)N[C@@H](C)C(=O)N[C@@H](CCCCN)C(=O)N[C@@H](CCCCN)C(N)=O)NC(=O)[C@H](CCC(=O)O)NC(=O)CNC1=O [Mag(i+4)1,15(A9K, B21A, N22K, S23K), GXGKFXHSKKKFGKAXVGEXAKK] (H-G[S5]GKF[S5]HSKKKFGKA[S5]VGE[S5]AKK-NH2; staple 2-6, 16-20) |  |  |  | 0.8 µg/mL (≈ 0.316 µM) | 50 µg/mL (≈ 19.7 µM) | 1.6 µg/mL (≈ 0.632 µM) | 3.1 µg/mL (≈ 1.22 µM) | >50 µg/mL |  | markedly reduced lytic activity toward pRPTECs | lowered long-term lytic activity |  | 
3 | CC(C)[C@@H]1NC(=O)[C@@](C)(NC(=O)[C@H](C)NC(=O)[C@H](CCCCN)NC(=O)CNC(=O)[C@H](Cc2ccccc2)NC(=O)[C@H](CCCCN)NC(=O)[C@H](CCCCN)NC(=O)[C@H](CCCCN)NC(=O)[C@H](CO)NC(=O)[C@H](Cc2c[nH]cn2)NC(=O)[C@]2(C)CCCC=CCCC[C@](C)(NC(=O)CN)C(=O)NCC(=O)N[C@@H](CCCCN)C(=O)N[C@@H](Cc3ccccc3)C(=O)N2)CCCC=CCCC[C@@](C)(C(=O)N[C@@H](CCCCN)C(=O)N[C@@H](CC(N)=O)C(=O)N[C@@H](CO)C(N)=O)NC(=O)[C@H](CCC(=O)O)NC(=O)CNC1=O [Mag(i+4)1,15(A9K, B21K), GXGKFXHSKKKFGKAXVGEXKNS] (H-G[S5]GKF[S5]HSKKKFGKA[S5]VGE[S5]KNS-NH2; staple 2-6, 16-20) |  |  |  | 1.6 µg/mL (≈ 0.631 µM) | 35.4 µg/mL (≈ 14 µM) | 3.1 µg/mL (≈ 1.22 µM) | 12.5 µg/mL (≈ 4.93 µM) | >50 µg/mL |  | markedly reduced lytic activity toward pRPTECs | lowered long-term lytic activity |  | 
4 | CC(C)C[C@H](NC(=O)[C@H](Cc1ccc(O)cc1)NC(=O)[C@H](Cc1c[nH]cn1)NC(=O)[C@@H](NC(=O)[C@H](CC(C)C)NC(=O)[C@]1(C)CCCC=CCCC[C@](C)(NC(=O)[C@H](Cc2c[nH]cn2)NC(=O)[C@H](CCCCN)NC(=O)CNC(=O)[C@@H](NC(=O)[C@H](Cc2c[nH]cn2)NC(=O)[C@H](C)NC(=O)[C@H](CCCCN)NC(=O)[C@H](CCCCN)NC(=O)[C@H](CCCCN)NC(=O)[C@]2(C)CCCC=CCCC[C@](C)(NC(=O)CN)C(=O)NCC(=O)N[C@@H](CO)C(=O)N[C@@H](Cc3ccccc3)C(=O)N2)C(C)C)C(=O)NCC(=O)N[C@@H](CCCCN)C(=O)N[C@@H](C)C(=O)N1)[C@@H](C)O)C(N)=O [Pleu(i+4)1,15(A9K), GXGSFXKKKAHVGKHXGKAXLTHYL] (H-G[S5]GSF[S5]KKKAHVGKH[S5]GKA[S5]LTHYL-NH2; staple 2-6, 16-20) | 16.3% | 1.6 µg/mL | 1.6 µg/mL |  |  |  |  |  |  |  |  | 3.1 µg/mL | 3.1 µg/mL
5 | CCCC[C@H](NC(=O)[C@]1(C)CCCC=CCCC[C@](C)(NC(=O)[C@H](C)NC(=O)[C@H](CCCCN)NC(=O)CNC(=O)[C@H](Cc2ccccc2)NC(=O)[C@H](CCCCN)NC(=O)[C@H](CCCCN)NC(=O)[C@H](CCCCN)NC(=O)[C@H](CO)NC(=O)[C@]2(C)CCCC=CCCC[C@](C)(NC(=O)[C@@H](NC(=O)CN)[C@@H](C)CC)C(=O)N[C@@H](CCCCN)C(=O)N[C@@H](Cc3ccccc3)C(=O)N[C@@H](CC(C)C)C(=O)N2)C(=O)N[C@@H](C(C)C)C(=O)NCC(=O)N[C@@H](CCC(=O)O)C(=O)N1)C(=O)N[C@@H](CC(N)=O)C(=O)N[C@@H](CO)C(N)=O [Mag(i+4)2,15(A9K), GIXKFLXSKKKFGKAXVGEXBNS] (H-GI[S5]KFL[S5]SKKKFGKA[S5]VGE[S5][Nle]NS-NH2; staple 3-7, 16-20) | 17.9% | 2.2 µg/mL | 3.1 µg/mL |  |  |  |  |  |  |  |  | 1.6 µg/mL | 1.6 µg/mL
6 | CC(C)C[C@H](NC(=O)[C@H](Cc1ccc(O)cc1)NC(=O)[C@H](Cc1c[nH]cn1)NC(=O)[C@@H](NC(=O)[C@H](CC(C)C)NC(=O)[C@]1(C)CCCC=CCCC[C@](C)(NC(=O)[C@H](Cc2c[nH]cn2)NC(=O)[C@H](CCCCN)NC(=O)CNC(=O)[C@@H](NC(=O)[C@H](Cc2c[nH]cn2)NC(=O)[C@H](C)NC(=O)[C@H](C)NC(=O)[C@H](CCCCN)NC(=O)[C@H](CCCCN)NC(=O)[C@]2(C)CCCC=CCCC[C@](C)(NC(=O)CN)C(=O)NCC(=O)N[C@@H](CO)C(=O)N[C@@H](Cc3ccccc3)C(=O)N2)C(C)C)C(=O)NCC(=O)N[C@@H](CCCCN)C(=O)N[C@@H](C)C(=O)N1)[C@@H](C)O)C(N)=O [Pleu(i+4)1,15, GXGSFXKKAAHVGKHXGKAXLTHYL] (H-G[S5]GSF[S5]KKAAHVGKH[S5]GKA[S5]LTHYL-NH2; staple 2-6, 16-20) | 88.2% |  |  |  |  |  |  |  |  |  |  | 3.1 µg/mL | 3.1 µg/mL

— patent US11325955B2, “Stabilized anti-microbial peptides for the treatment of antibiotic-resistant bacterial infections” (priority 2017, dated 2022)
